In patent publication US9833497B2, “Human originated EGF domain proteins and use of the same” (CHENGDU SOURCEBIO LIMITED-LIABILITY COMPANY, priority 2013, dated 2017):

Columns and labels:
Format in all cases: cell-based
Aeromonas hydrophila = assay: MIC against Gram-negative bacteria: Aeromonas hydrophila; conditions: 5×10^5 CFU/mL
Method in brief: (§1)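 Inocula prepared by growing LB cultures at 37° C to 0.5 McFarland, centrifuging at 4000×g, and resuspending in fresh medium. Final density 5×10^5 CFU/mL per well with two-fold dilutions of purified EGF domain protein; shaking incubation at 37° C.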

E. coli BL21 = assay: MIC against Gram-negative bacteria: E. coli BL21; conditions: 5×10^5 CFU/mL
Method in brief: as §1

Pseudomonas aeruginosa = assay: MIC against Gram-negative bacteria: Pseudomonas aeruginosa; conditions: 5×10^5 CFU/mL
Method in brief: as §1

Citrobacter diversus = assay: MIC against Gram-negative bacteria: Citrobacter diversus; conditions: 5×10^5 CFU/mL
Method in brief: as §1

Enterobacter cloacae = assay: MIC against Gram-negative bacteria: Enterobacter cloacae; conditions: 5×10^5 CFU/mL
Method in brief: as §1

Klebsiella pneumonia = assay: MIC against Gram-negative bacteria: Klebsiella pneumonia; conditions: 5×10^5 CFU/mL
Method in brief: as §1

E. coli DH5α = assay: Antibacterial activity: MIC and growth curve against E. coli DH5α in 96-well plate; conditions: minimal inhibitory concentration against E. coli DH5α; 96-well plate, 5×10^5 CFU/mL, 37° C., judged after 8 h
Method in brief: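 MIC taken as lowest protein level with no bacterial growth, tracked by A600 every 30 min during 37 °C, 175 rpm culture. Two-fold protein series 50-12.5 μg/mL final, triplicate wells, against 5×10^5 CFU/mL of LB-washed mid-log cells.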

Serratia marcescens = assay: MIC against Gram-negative bacteria: Serratia marcescens; conditions: 5×10^5 CFU/mL
Method in brief: as §1

Proteus mirabilis = assay: MIC against Gram-negative bacteria: Proteus mirabilis; conditions: 5×10^5 CFU/mL
Method in brief: as §1

Proteus vulgaris = assay: MIC against Gram-negative bacteria: Proteus vulgaris; conditions: 5×10^5 CFU/mL
Method in brief: as §1

Moraxella catarrhalis = assay: MIC against Gram-negative bacteria: Moraxella catarrhalis; conditions: 5×10^5 CFU/mL
Method in brief: as §1

[1] = Aeromonas hydrophila, 10 h cultivation at 37° C.
[2] = Pseudomonas aeruginosa, 10 h cultivation at 37° C.
[3] = Citrobacter diversus, 10 h cultivation at 37° C.
[4] = Enterobacter cloacae, 10 h cultivation at 37° C.
[5] = Klebsiella pneumonia, 10 h cultivation at 37° C.
[6] = Serratia marcescens, 10 h cultivation at 37° C.
[7] = Proteus mirabilis, 10 h cultivation at 37° C.
[8] = Proteus vulgaris, 10 h cultivation at 37° C.
[9] = Moraxella catarrhalis, 10 h cultivation at 37° C.
[10] = Aeromonas hydrophila, 96-well plate, 37° C., 10 h
[11] = Pseudomonas aeruginosa, 96-well plate, 37° C., 10 h
[12] = Citrobacter diversus, 96-well plate, 37° C., 10 h
[13] = Enterobacter cloacae, 96-well plate, 37° C., 10 h
[14] = Klebsiella pneumonia, 96-well plate, 37° C., 10 h
[15] = Serratia marcescens, 96-well plate, 37° C., 10 h
[16] = Proteus mirabilis, 96-well plate, 37° C., 10 h
[17] = Proteus vulgaris, 96-well plate, 37° C., 10 h
[18] = Moraxella catarrhalis, 96-well plate, 37° C., 10 h
[19] = 10 h cultivation at 37° C., two-fold serial dilution
[20] = A. hydrophila, 10 h cultivation at 37° C.
[21] = P. aeruginosa, 10 h cultivation at 37° C.
[22] = C. diversus, 10 h cultivation at 37° C.
[23] = E. cloacae, 10 h cultivation at 37° C.
[24] = K. pneumonia, 10 h cultivation at 37° C.
[25] = S. marcescens, 10 h cultivation at 37° C.
[26] = P. mirabilis, 10 h cultivation at 37° C.
[27] = P. vulgaris, 10 h cultivation at 37° C.
[28] = M. catarrhalis, 10 h cultivation at 37° C.

With “PRT1415 (PRATCLDQCSGHGTFLPDTGLCSCDPSWTGHDCS; listed as Homo sapiens)” the “MIC against A. hydrophila” value (Aeromonas hydrophila; [1]) was 25 µg/mL, the “MIC against E. coli BL21” value (E. coli BL21; 10 h cultivation at 37° C.) was 12.5 µg/mL and the “MIC against P. aeruginosa” value (Pseudomonas aeruginosa; [2]) was 25 µg/mL. For the same substance, the “MIC against C. diversus” value (Citrobacter diversus; [3]) was 50 µg/mL, the “MIC against E. cloacae” value (Enterobacter cloacae; [4]) was 25 µg/mL and the “MIC against K. pneumonia” value (Klebsiella pneumonia; [5]) was 12.5 µg/mL. The MIC (E. coli DH5α) was 25 µg/mL, the “MIC against S. marcescens” value (Serratia marcescens; [6]) was 50 µg/mL and the “MIC against P. mirabilis” value (Proteus mirabilis; [7]) was 12.5 µg/mL. The “MIC against P. vulgaris” value (Proteus vulgaris; [8]) was 25 µg/mL and the “MIC against M. catarrhalis” value (Moraxella catarrhalis; [9]) was 25 µg/mL.
In the case of “PRT1224 (PPGDCASHPCQNGGSCEPGLHSGFTCSCPDSHTGRTCE; listed as Homo sapiens)”, the “MIC against A. hydrophila” value (Aeromonas hydrophila; [10]) is reported as 50 µg/mL, the “MIC against E. coli BL21” value (E. coli BL21; 96-well plate, 37° C., 10 h) is reported as 50 µg/mL and the “MIC against P. aeruginosa” value (Pseudomonas aeruginosa; [11]) is reported as 25 µg/mL. For the same substance, the “MIC against C. diversus” value (Citrobacter diversus; [12]) was 12.5 µg/mL, the “MIC against E. cloacae” value (Enterobacter cloacae; [13]) was 25 µg/mL and the “MIC against K. pneumonia” value (Klebsiella pneumonia; [14]) was 12.5 µg/mL. For the same substance, the MIC (E. coli DH5α) was 25 µg/mL, the “MIC against S. marcescens” value (Serratia marcescens; [15]) was 50 µg/mL and the “MIC against P. mirabilis” value (Proteus mirabilis; [16]) was 50 µg/mL. For the same substance, the “MIC against P. vulgaris” value (Proteus vulgaris; [17]) was 12.5 µg/mL and the “MIC against M. catarrhalis” value (Moraxella catarrhalis; [18]) was 25 µg/mL.
In the case of “PRT2 (DQLICVNENGGCEQYCSDHTGTKRSCRCHEGYSLLADGVSCT; listed as Homo sapiens)”, the “MIC (μg/mL) A. hydrophila” value (Aeromonas hydrophila; [10]) is reported as 25 µg/mL, the “MIC (μg/mL) E. coli BL21” value (E. coli BL21; 96-well plate, 37° C., 10 h) is reported as 50 µg/mL and the “MIC (μg/mL) P. aeruginosa” value (Pseudomonas aeruginosa; [11]) is reported as 50 µg/mL. For the same substance, the “MIC (μg/mL) C. diversus” value (Citrobacter diversus; [12]) was 25 µg/mL, the “MIC (μg/mL) E. cloacae” value (Enterobacter cloacae; [13]) was 25 µg/mL and the “MIC (μg/mL) K. pneumonia” value (Klebsiella pneumonia; [14]) was 50 µg/mL. For the same substance, the MIC (E. coli DH5α) was 25 µg/mL, the “MIC (μg/mL) S. marcescens” value (Serratia marcescens; [15]) was 12.5 µg/mL and the “MIC (μg/mL) P. mirabilis” value (Proteus mirabilis; [16]) was 25 µg/mL. For the same substance, the “MIC (μg/mL) P. vulgaris” value (Proteus vulgaris; [17]) was 12.5 µg/mL and the “MIC (μg/mL) M. catarrhalis” value (Moraxella catarrhalis; [18]) was 12.5 µg/mL.
“PRT1149 (APSVCQQDVCHNGGTCHAIFLSSGIVSFQCDCPLHFTGRFCE; listed as Homo sapiens)” was tested, and the “MIC A. hydrophila” value (Aeromonas hydrophila; [19]) was 50 µg/mL, the “MIC E. coli BL21” value (E. coli BL21; [19]) was 25 µg/mL and the “MIC P. aeruginosa” value (Pseudomonas aeruginosa; [19]) was 50 µg/mL. The “MIC C. diversus” value (Citrobacter diversus; [19]) was 12.5 µg/mL, the “MIC E. cloacae” value (Enterobacter cloacae; [19]) was 12.5 µg/mL and the “MIC K. pneumonia” value (Klebsiella pneumonia; [19]) was 25 µg/mL. For the same substance, the MIC (E. coli DH5α) was 25 µg/mL, the “MIC S. marcescens” value (Serratia marcescens; [19]) was 50 µg/mL and the “MIC P. mirabilis” value (Proteus mirabilis; [19]) was 12.5 µg/mL. For the same substance, the “MIC P. vulgaris” value (Proteus vulgaris; [19]) was 25 µg/mL and the “MIC M. catarrhalis” value (Moraxella catarrhalis; [19]) was 50 µg/mL.
With “PRT221 (YTECTDGYEWDPDSQHCRDVNECLTIPEACKGEMKCINHYGGYLCL; listed as Homo sapiens)” the “MIC (μg/mL) A. hydrophila” value (Aeromonas hydrophila; [20]) was 50 µg/mL, the “MIC (μg/mL) E. coli BL21” value (E. coli BL21; 10 h cultivation at 37° C.) was 50 µg/mL and the “MIC (μg/mL) P. aeruginosa” value (Pseudomonas aeruginosa; [21]) was 50 µg/mL. The “MIC (μg/mL) C. diversus” value (Citrobacter diversus; [22]) was 25 µg/mL, the “MIC (μg/mL) E. cloacae” value (Enterobacter cloacae; [23]) was 25 µg/mL and the “MIC (μg/mL) K. pneumonia” value (Klebsiella pneumonia; [24]) was 12.5 µg/mL. The MIC (E. coli DH5α) was 12.5 µg/mL, the “MIC (μg/mL) S. marcescens” value (Serratia marcescens; [25]) was 12.5 µg/mL and the “MIC (μg/mL) P. mirabilis” value (Proteus mirabilis; [26]) was 25 µg/mL. For the same substance, the “MIC (μg/mL) P. vulgaris” value (Proteus vulgaris; [27]) was 50 µg/mL and the “MIC (μg/mL) M. catarrhalis” value (Moraxella catarrhalis; [28]) was 12.5 µg/mL.
In the case of “PRT1410 (IEGCPGLCNSNGRCTLDQNGWHCVCQPGWRGAGCD; listed as Homo sapiens)”, the “MIC against A. hydrophila” value (Aeromonas hydrophila; [1]) is reported as 12.5 µg/mL, the “MIC against E. coli BL21” value (E. coli BL21; 10 h cultivation at 37° C.) is reported as 12.5 µg/mL and the “MIC against P. aeruginosa” value (Pseudomonas aeruginosa; [2]) is reported as 25 µg/mL. The “MIC against C. diversus” value (Citrobacter diversus; [3]) was 50 µg/mL, the “MIC against E. cloacae” value (Enterobacter cloacae; [4]) was 25 µg/mL and the “MIC against K. pneumonia” value (Klebsiella pneumonia; [5]) was 50 µg/mL. For the same substance, the MIC (E. coli DH5α) was 25 µg/mL, the “MIC against S. marcescens” value (Serratia marcescens; [6]) was 12.5 µg/mL and the “MIC against P. mirabilis” value (Proteus mirabilis; [7]) was 50 µg/mL. The “MIC against P. vulgaris” value (Proteus vulgaris; [8]) was 12.5 µg/mL and the “MIC against M. catarrhalis” value (Moraxella catarrhalis; [9]) was 100 µg/mL.
For “PRT815 (YGPSCQTRCSCANDGHCHPATGHCSCAPGWTGFSCQ; listed as Homo sapiens)”, the “MIC (μg/mL) A. hydrophila” value (Aeromonas hydrophila; [20]) was 12.5 µg/mL, the “MIC (μg/mL) E. coli BL21” value (E. coli BL21; 10 h cultivation at 37° C.) was 12.5 µg/mL and the “MIC (μg/mL) P. aeruginosa” value (Pseudomonas aeruginosa; [21]) was 12.5 µg/mL. The “MIC (μg/mL) C. diversus” value (Citrobacter diversus; [22]) was 25 µg/mL, the “MIC (μg/mL) E. cloacae” value (Enterobacter cloacae; [23]) was 25 µg/mL and the “MIC (μg/mL) K. pneumonia” value (Klebsiella pneumonia; [24]) was 12.5 µg/mL. The MIC (E. coli DH5α) was 25 µg/mL, the “MIC (μg/mL) S. marcescens” value (Serratia marcescens; [25]) was 25 µg/mL and the “MIC (μg/mL) P. mirabilis” value (Proteus mirabilis; [26]) was 25 µg/mL. For the same substance, the “MIC (μg/mL) P. vulgaris” value (Proteus vulgaris; [27]) was 12.5 µg/mL and the “MIC (μg/mL) M. catarrhalis” value (Moraxella catarrhalis; [28]) was 50 µg/mL.
